Source: article PMC5711809, “Bayesian Analysis of MicroScale Thermophoresis Data to Quantify Affinity of Protein:Protein Interactions with Human Survivin” (Scientific Reports, 2017)

Molecular target: T1, human survivin (Homo sapiens, UniProt O15392)
T1 construct: His8 (pHIS8 vector); made in house; host or cells: E. coli BL21(DE3) star
Assay: PEPperCHIP peptide microarray, survivin binding to laser printed overlapping peptides
Settings: survivin 1, 10 and 100 μg/ml; secondary 6X His Tag Antibody DyLight680 antibody; fluorescence, LI-COR Odyssey; duplicate spots
Procedure: We tested the Bayesian inference method on potential binding interactions of survivin identified by PEPperCHIP Peptide Microarray (PEPperPRINT, GmbH, Heidelberg, Germany). These microarrays consisted of overlapping peptides originating from candidate proteins from the human proteome including hSgol1, hSgol2 and the N-terminal region of borealin (1–93). The peptides were generated by peptide laser printing[25] (Fig. 2). […] The spots are consistently visible at 1, 10 and 100 μg/ml survivin concentrations in the assay buffer (Fig. 2). Quantitative analysis of the fluorescent intensities of the specific and control antibodies for borealin, hSgo1l and hSgol2 are shown in Supplementary Fig. S1, S2 and S3, respectively.
Pre-staining of one of the PEPperCHIP® Peptide Microarrays was done with the secondary 6X His Tag Antibody DyLight680 antibody at a dilution of 1:1000 and with monoclonal anti-HA (12CA5)-DyLight800 control antibody at a dilution of 1:1000 to investigate background interactions with the protein-derived peptides that could interfere with the main assays. Subsequent incubation of other peptide microarray copies with survivin at concentrations of 1 µg/ml, 10 µg/ml and 100 µg/ml in incubation buffer was followed by staining with the secondary 6X His Tag Antibody DyLight680 (Rockland Immunochemicals) antibody and the monoclonal anti-HA (12CA5)-DyLight800 control antibody (Rockland Immunochemicals) as well as by read-out at scanning intensities of 7/7 (red/green). HA and His tag control peptides were simultaneously stained as internal quality control to confirm the assay quality and to facilitate grid alignment for data quantification. Read-out was performed with a LI-COR Odyssey Imaging System, while quantification of spot intensities and peptide annotation were done with PepSlide® Analyzer.

T1 sequence (O15392 whole entry): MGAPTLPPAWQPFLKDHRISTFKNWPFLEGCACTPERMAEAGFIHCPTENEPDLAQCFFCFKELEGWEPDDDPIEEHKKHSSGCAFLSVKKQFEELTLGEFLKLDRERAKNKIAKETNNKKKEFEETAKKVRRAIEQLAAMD

Molecule | microarray response to survivin (spot signal)
DTQERKREEKRKANR [adjacent hSgol1 peptide, laser printed on microarray] | to some extent
ECQVKKVNKMTSKSK [hSgol2 peptide, laser printed on microarray] | main responses with the clearest spot morphologies
EVSKIVTVSTGIKKK [other basic peptide on the microarray] | did not react with survivin in a similar manner
HQSSFLLSASKKKRI [other basic peptide on the microarray] | did not react with survivin in a similar manner
KREEKRKANRRKSKR [basic hSgol1 peptide, laser printed on microarray] | main responses with the clearest spot morphologies
KTFRKVKDSSSEKKR [other basic peptide on the microarray] | did not react with survivin in a similar manner
KVNKMTSKSKKRKTS [hSgol2 peptide, laser printed on microarray] | main responses with the clearest spot morphologies
RKANRRKSKRMSKYK [basic hSgol1 peptide, laser printed on microarray] | main responses with the clearest spot morphologies
SPTDPKACNWKKYKF [other basic peptide on the microarray] | did not react with survivin in a similar manner

Molecular target: T2, human survivin (human, UniProt O15392 1-142, GREEN-MALEIMIDE (cysteine reactive) fluorescent label, in the MST experiments only)
T2 construct: survivin, human, 16 kDa; The His tag is detected on the array by a 6X His Tag antibody; for the MST no cleavage of the tag is told; On the array the protein was unlabelled, in the MST labelled on cysteine; source: E. coli BL21(DE3) star, purified (Ni2+ chelation chromatography, gel filtration)
T2 sequence (O15392 whole entry): as above
Assay: peptide or protein array; PEPperCHIP microarray of overlapping printed peptides; incubated with survivin at 1, 10 and 100 µg/ml in incubation buffer; detected with 6X His Tag Antibody DyLight680
Settings: both partners purified

Molecule | binding result
ECQVKKVNKMTSKSK (human Shugoshin-like 2 (hSgol2), 15-mer of the overlapping peptide array; source: laser-printed on the PEPperCHIP peptide microarray (PEPperPRINT)) [hSgol2 array peptide ECQVKKVNKMTSKSK] | binds
KREEKRKANRRKSKR (human Shugoshin-like 1 (hSgol1), 15-mer of the overlapping peptide array; source: laser-printed on the PEPperCHIP peptide microarray (PEPperPRINT)) [hSgol1 array peptide KREEKRKANRRKSKR] | binds
RKANRRKSKRMSKYK (human Shugoshin-like 1 (hSgol1), 15-mer of the overlapping peptide array; source: laser-printed on the PEPperCHIP peptide microarray (PEPperPRINT)) [hSgol1 array peptide RKANRRKSKRMSKYK] | binds
KVNKMTSKSKKRKTS (human Shugoshin-like 2 (hSgol2), 15-mer of the overlapping peptide array; source: laser-printed on the PEPperCHIP peptide microarray (PEPperPRINT)) [hSgol2 array peptide KVNKMTSKSKKRKTS] | binds
